In patent US20220257775A1 (GLYCOMIMETICS, INC., priority 2019, published 2022):

What follows are compounds tested against T1, recombinant human E-selectin/CD63E Fc Chimera (Homo sapiens, UniProt P16581) (assay: E-Selectin Activity - Analysis by SPR). Details: Biacore X100, E-selectin captured on anti-human IgG (Fc) chip.
T1 construct: Fc (human IgG Fc fusion partner); purchased R & D systems
T1 sequence (P16581 with tags, fused parts or gaps limits assumed): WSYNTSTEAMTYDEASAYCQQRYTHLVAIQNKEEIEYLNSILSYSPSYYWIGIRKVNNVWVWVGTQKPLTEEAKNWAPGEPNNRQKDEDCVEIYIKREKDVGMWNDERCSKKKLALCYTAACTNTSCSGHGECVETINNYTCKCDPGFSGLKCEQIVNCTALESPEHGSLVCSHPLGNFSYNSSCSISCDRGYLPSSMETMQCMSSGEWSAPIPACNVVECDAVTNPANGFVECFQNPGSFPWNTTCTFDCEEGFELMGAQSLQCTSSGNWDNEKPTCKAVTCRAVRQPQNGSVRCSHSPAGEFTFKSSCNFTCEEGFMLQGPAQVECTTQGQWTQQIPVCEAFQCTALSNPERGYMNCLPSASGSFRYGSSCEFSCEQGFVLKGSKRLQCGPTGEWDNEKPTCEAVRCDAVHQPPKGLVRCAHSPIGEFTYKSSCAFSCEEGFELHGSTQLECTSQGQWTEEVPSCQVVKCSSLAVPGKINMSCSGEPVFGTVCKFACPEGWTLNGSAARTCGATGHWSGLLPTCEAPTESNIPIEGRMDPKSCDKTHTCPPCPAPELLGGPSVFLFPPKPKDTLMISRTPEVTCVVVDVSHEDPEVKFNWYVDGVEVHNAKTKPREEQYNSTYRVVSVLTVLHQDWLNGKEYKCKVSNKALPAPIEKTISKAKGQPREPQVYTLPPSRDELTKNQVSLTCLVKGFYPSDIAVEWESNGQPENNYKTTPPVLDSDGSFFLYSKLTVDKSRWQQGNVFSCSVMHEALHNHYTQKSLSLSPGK
Type: binding
Description: Surface Plasmon Resonance (SPR) measurements were performed on a Biacore X100 instrument (GE Healthcare). A CM5 sensor chip (GE Healthcare) was used for the interaction between E-selectin and GMI compound. Anti-human IgG (Fc) antibody (GE Healthcare) was immobilized onto the chip by amine coupling according to the manufacturer's instructions. In brief, after a 7-min injection (flow rate of 5 μl/min) of 1:1 mixture of N-ethyl-N′-(3-dimethylaminopropyl) carbodiimide hydrochloride and N-hydroxysuccinimide, anti-human IgG (Fc) antibody (25 μg/ml in 10 mM sodium acetate buffer, pH 5.0) was injected using a 6-min injection at 5 μl/min. Remaining activated groups were blocked by injecting 1 M ethanolamine/HCl, pH 8.5. The recombinant human E-selectin/CD63E Fc Chimera (50 μg/ml) (R & D systems) was injected into the experimental cell until 6000-7000 RU was captured onto the antibody surface. No recombinant human E-selectin/CD63E was injected into the control cell. Increasing concentrations of GMI compound samples were injected at 30 μl/min into both flow cells and all sensorgrams were recorded against the control. Regeneration of the anti-human IgG (Fc) surface was achieved by injecting 3M magnesium chloride, followed by 50 mM sodium hydroxide. Data were analyzed using Biacore X100 evaluation/BIA evaluation 4.1.1 software (GE Healthcare) and Graphad prism 6 software.
CC[C@H]1CC(C(=O)NCCNC(=O)CCC(=O)NCCNC(=O)[C@@H]2C[C@H](CC)[C@@H](O[C@@H]3O[C@@H](C)[C@@H](O)[C@@H](O)[C@@H]3O)[C@H](O[C@@H]3O[C@H](CO)[C@H](O)[C@H](O[C@@H](CC4CCCCC4)C(=O)O)[C@H]3NC(C)=O)C2)C[C@@H](O[C@@H]2O[C@H](CO)[C@H](O)[C@H](O[C@@H](CC3CCCCC3)C(=O)O)[C@H]2NC(C)=O)[C@@H]1O[C@@H]1O[C@@H](C)[C@@H](O)[C@@H](O)[C@@H]1O (some centres unmarked) [Compound 19] was tested, and the Kd was 10.2 nM. With CC[C@H]1C[C@@H](C(=O)NCCNC(=O)CCOCCOCCOCCOCCOCCOCCC(=O)NCCNC(=O)[C@@H]2C[C@H](CC)[C@@H](O[C@@H]3O[C@@H](C)[C@@H](O)[C@@H](O)[C@@H]3O)[C@H](O[C@@H]3O[C@H](CO)[C@H](O)[C@H](O[C@@H](CC4CCCCC4)C(=O)N4CCC4)[C@H]3NC(C)=O)C2)C[C@@H](O[C@@H]2O[C@H](CO)[C@H](O)[C@H](O[C@@H](CC3CCCCC3)C(=O)N3CCC3)[C@H]2NC(C)=O)[C@@H]1O[C@@H]1O[C@@H](C)[C@@H](O)[C@@H](O)[C@@H]1O [Compound 24] the Kd was 2.4 nM. Compound CC[C@H]1C[C@@H](C(=O)OC)C[C@@H](O[C@@H]2O[C@H](CO)[C@H](O)[C@H](O[C@@H](CC3CCCCC3)C(=O)O)[C@H]2NC(C)=O)[C@@H]1O[C@@H]1O[C@@H](C)[C@@H](O)[C@@H](O)[C@@H]1O [Compound 3, reference compound] has a Kd of 2260 nM. CC[C@H]1C[C@@H](C(=O)NCCNC(=O)CCOCCOCCOCCOCCOCCOCCOCCOCCOCCOCCOCCOCCOCCOCCOCCOCCOCCC(=O)NCCNC(=O)[C@@H]2C[C@H](CC)[C@@H](O[C@@H]3O[C@@H](C)[C@@H](O)[C@@H](O)[C@@H]3O)[C@H](O[C@@H]3O[C@H](CO)[C@H](O)[C@H](O[C@@H](CC4CCCCC4)C(=O)O)[C@H]3NC(C)=O)C2)C[C@@H](O[C@@H]2O[C@H](CO)[C@H](O)[C@H](O[C@@H](CC3CCCCC3)C(=O)O)[C@H]2NC(C)=O)[C@@H]1O[C@@H]1O[C@@H](C)[C@@H](O)[C@@H](O)[C@@H]1O [Compound 11] was tested, and the Kd was 8.5 nM. In the case of CCC1CC(C(=O)NCCNC(=O)c2cn(CCOCCOCCOCCn3cc(C(=O)NCCNC(=O)C4CC(CC)C(OC5OC(C)C(O)C(O)C5O)C(OC5OC(CO)C(O)C(OC(CC6CCCCC6)C(=O)N6CCC6)C5NC(C)=O)C4)nn3)nn2)CC(OC2OC(CO)C(O)C(OC(CC3CCCCC3)C(=O)N3CCC3)C2NC(C)=O)C1OC1OC(C)C(O)C(O)C1O (centres unmarked) [Compound 29], the Kd is reported as 3.2 nM. Work on CCC1CC(C(=O)NCCNC(=O)CCC(=O)NCCN(CCNC(=O)CCC(=O)NCCNC(=O)C2CC(CC)C(OC3OC(C)C(O)C(O)C3O)C(OC3OC(CO)C(O)C(OC(CC4CCCCC4)C(=O)O)C3NC(C)=O)C2)CCNC(=O)CCC(=O)NCCNC(=O)C2CC(CC)C(OC3OC(C)C(O)C(O)C3O)C(OC3OC(CO)C(O)C(OC(CC4CCCCC4)C(=O)O)C3NC(C)=O)C2)CC(OC2OC(CO)C(O)C(OC(CC3CCCCC3)C(=O)O)C2NC(C)=O)C1OC1OC(C)C(O)C(O)C1O (centres unmarked) [Compound 42] yielded a Kd of 1.5 nM. Work on CC[C@H]1C[C@@H](C(=O)NCCNC(=O)CCOCCOCCOCCOCCOCCOCCOCCOCCOCCOCCC(=O)NCCNC(=O)[C@@H]2C[C@H](CC)[C@@H](O[C@@H]3O[C@@H](C)[C@@H](O)[C@@H](O)[C@@H]3O)[C@H](O[C@@H]3O[C@H](CO)[C@H](O)[C@H](O[C@@H](CC4CCCCC4)C(=O)N(C)C)[C@H]3NC(C)=O)C2)C[C@@H](O[C@@H]2O[C@H](CO)[C@H](O)[C@H](O[C@@H](CC3CCCCC3)C(=O)N(C)C)[C@H]2NC(C)=O)[C@@H]1O[C@@H]1O[C@@H](C)[C@@H](O)[C@@H](O)[C@@H]1O [Compound 21] yielded a Kd of 18.3 nM. CC[C@H]1C[C@@H](C(=O)NCCNC(=O)CCOCCOCCOCCOCCOCCOCCOCCOCCOCCOCCOCCOCCOCCOCCOCCOCCOCCOCCOCCOCCOCCC(=O)NCCNC(=O)[C@@H]2C[C@H](CC)[C@@H](O[C@@H]3O[C@@H](C)[C@@H](O)[C@@H](O)[C@@H]3O)[C@H](O[C@@H]3O[C@H](CO)[C@H](O)[C@H](O[C@@H](CC4CCCCC4)C(=O)O)[C@H]3NC(C)=O)C2)C[C@@H](O[C@@H]2O[C@H](CO)[C@H](O)[C@H](O[C@@H](CC3CCCCC3)C(=O)O)[C@H]2NC(C)=O)[C@@H]1O[C@@H]1O[C@@H](C)[C@@H](O)[C@@H](O)[C@@H]1O [Compound 13] showed a Kd of 4.7 nM.
